# Reference: patent US6245734A (priority 1997, dated 2001)
# Where two headings read alike, the source gives them in different places.
# Columns and labels:
# BxPC-3 cell = conditions: 3 μg/ml adriamycin, from start of treatment; cited from earlier work
# [1] = test system: spontaneously generated human solid cancer cells; conditions: cited from earlier work
# AsPC-1 cell = conditions: 30 μg/ml adriamycin; cited from earlier work
# [2] = test system: leukemia cells and experimental cancer cells artificially generated by carcinogen virus and the like; conditions: cited from earlier work
# incubated cancer cells = conditions: cited from earlier work
# Escherichia coli = assay: Antibacterial activity, serial dilution on Muller-Hinton agar; assay type: cell-based; conditions: gram-negative bacteria such as Escherichia coli
# Description: Antibacterial spectra of polyoxypeptin and deoxypoly-oxypeptin against various microorganisms were determined on Muller-Hinton agar medium by a serial dilution method on the basis of the standard method of Japan Society of Chemotherapy.
# AsPC-1 cells [3] = assay: Apoptosis-inducing activity on human pancreatic cancer cell AsPC-1 (Trypan Blue); assay type: cell-based; conditions: for IC50: Homo sapiens, read-out: IC50 (concentration at which cell death by apoptosis is induced at 50% of total AsPC-1 cells); for time after drug treatment in which apoptosis was induced on AsPC-1 cells: after the drug treatment
# Description: A cell suspension containing the AsPC-1 cells suspended in an RPMI 1640 culture medium containing 10% FBS was prepared, and 500 μl-portion each of the cell suspension was placed in a 24-well plastic plate in a proportion of 1×10^5 cells/well. The cell suspension was incubated at 37° C. under 5% CO2 for 1 day. The AsPC-1 cells adhered onto the bottom surface of each well. Subsequently, polyoxypeptin or deoxypolyoxypeptin was added to the liquid culture medium present in each well so as to give the substance under test at a concentration of 3, 100 or 300 μg/ml. The cells were incubated for 24 hours.
# Immediately after the incubation for 24 hours, the supernatant liquid (500 μl) of the culture medium remaining in each well was removed from each well of said plastic plate and discarded. Then, the plastic plate was washed twice with a PBS buffer solution (each 300 μl), and the washings were discharged. Thereafter, a trypsin-EDTA buffer solution (200 μl) was added to said plastic plate, and the incubation was effected at 37° C. under CO2 -free condition so as to peel the cells off from the plate. The cells so peeled were transferred to an Eppendorf tube. The Eppendorf tube was centrifuged (2400 rpm, 10 minutes) to deposit the cells down, and the super-natant was removed and discarded. A fresh amount of the liquid culture medium was added to the cells. An 80 μl-portion of the resulting cell suspension as formed in said tube was taken into another Eppendorf tube, to which were then added 20 μl of Trypan Blue staining solution (containing 4 mg/ml of Trypan Blue and 9 mg/ml of NaCl). The cell suspension was taken out from the resulting mixture by a pipette, and the cell suspension so pipetted was placed on a hemocytometer (made by Elma Co.). The cell sample was observed under a microscope of 100 magnifications. The number of the dead cells as blue-colored amongst the cells under observation, and the total number of whole cells under observation were counted.
# The survival rate (%) of the cells was calculated by an equation of 100-[(number of dead cells.div. total number of tested cells)×100].
# mice = assay: Acute toxicity in mice, single intravenous injection; assay type: in vivo, mouse; conditions: administered once by intravenous injection
# [4] = test system: Human pancreatic adenocarcinoma cells PSN-1; assay: Cytocidal activity, Trypan Blue; assay type: cell-based; conditions: read-out: IC50 (concentration required to kill 50% of cells)
# Description: (§1) Various cancer cells as shown in Table 1 below were incubated for 24 hours on such culture medium as shown in the table which contained polyoxypeptin or deoxypolyoxypeptin added at various concentrations. After staining with Trypan Blue, the number.of the dead cells was counted, and the concentration of polyoxypeptin or deoxypolyoxypeptin required to kill 50% of the total number of cells of the cancer cells under test, namely the value of IC50, was calculated therefrom.
# [5] = test system: Mouse fibroblast cell K-ras-NIH3T3; assay: Cytocidal activity, Trypan Blue; assay type: cell-based; conditions: read-out: IC50 (concentration required to kill 50% of cells)
# Description: as §1
# [6] = test system: Human pancreatic adenocarcinoma cells AsPC-1; assay: Cytocidal activity, Trypan Blue; assay type: cell-based; conditions: read-out: IC50 (concentration required to kill 50% of cells)
# Description: as §1
# [7] = test system: Human promyeloleukemia HL-60; assay: Cytocidal activity, Trypan Blue; assay type: cell-based; conditions: read-out: IC50 (concentration required to kill 50% of cells)
# Description: as §1
# [8] = test system: Mouse fibroblast cell RSV-NIH3T3 (src-transformed NIH3T3); assay: Cytocidal activity, Trypan Blue; assay type: cell-based; conditions: read-out: IC50 (concentration required to kill 50% of cells)
# Description: as §1
# [9] = test system: Human pancreatic adenocarcinoma cells BxPC-3; assay: Cytocidal activity, Trypan Blue; assay type: cell-based; conditions: read-out: IC50 (concentration required to kill 50% of cells)
# Description: as §1
# Human epithelioma A431 = assay: Cytocidal activity, Trypan Blue; assay type: cell-based; conditions: read-out: IC50 (concentration required to kill 50% of cells)
# Description: as §1
# [10] = test system: Human T cell leukemia Jurkat; assay: Cytocidal activity, Trypan Blue; assay type: cell-based; conditions: read-out: IC50 (concentration required to kill 50% of cells)
# Description: as §1
# [11] = test system: Human uterus body cancer HHUA; assay: Cytocidal activity, Trypan Blue; assay type: cell-based; conditions: read-out: IC50 (concentration required to kill 50% of cells)
# Description: as §1
# [12] = test system: Mouse fibroblast cell NIH3T3; assay: Cytocidal activity, Trypan Blue; assay type: cell-based; conditions: read-out: IC50 (concentration required to kill 50% of cells)
# Description: as §1
# Rat fibroblast cell NRK = assay: Cytocidal activity, Trypan Blue; assay type: cell-based; conditions: read-out: IC50 (concentration required to kill 50% of cells)
# Description: as §1
# [13] = test system: Human pancreatic adenocarcinoma cells Panc-1; assay: Cytocidal activity, Trypan Blue; assay type: cell-based; conditions: read-out: IC50 (concentration required to kill 50% of cells)
# Description: as §1
# [14] = test system: Human chronic promyeloleukemia K562; assay: Cytocidal activity, Trypan Blue; assay type: cell-based; conditions: read-out: IC50 (concentration required to kill 50% of cells)
# Description: as §1
# [15] = test system: Human bibrosarcoma HT1080; assay: Cytocidal activity, Trypan Blue; assay type: cell-based; conditions: read-out: IC50 (concentration required to kill 50% of cells)
# Description: as §1
# [16] = test system: Mouse fibroblast cell A4 (cerbB2-NIH3T3); assay: Cytocidal activity, Trypan Blue; assay type: cell-based; conditions: read-out: IC50 (concentration required to kill 50% of cells)
# Description: as §1
# [17] = test system: Rat fibroblast cell K-ras-NRK; assay: Cytocidal activity, Trypan Blue; assay type: cell-based; conditions: read-out: IC50 (concentration required to kill 50% of cells)
# Description: as §1
# [18] = test system: other human solid cancer cells; assay: Apoptosis induction on other human solid cancer cells; assay type: cell-based
# Solubility = conditions: for Solubility in organic solvents: methanol, ethanol, aqueous ethanol, chloroform, ethyl acetate, acetone, (n-)butanol, acetonitrile, toluene, dimethylsulfoxide
# AsPC-1 cells [19] = assay: Activity inhibitory to the proliferation of human pancreatic cancer cell AsPC-1 (MTT assay); assay type: cell-based; conditions: ASPC1, 48 h, read-out: IC50 (concentration at which proliferation of AsPC-1 cells was inhibited by 50%)
# Description: A cell suspension of AsPC-1 cells suspended in an RPMI 1640 culture medium containing 10% FBS was prepared, and 100 μl-portion each of said cell suspension was placed in a 96-well plastic plate in a proportion of 3×10^3 cells/well. Each plate was then incubated at 37° C. under a 5% CO2 for 1 day. Subsequently, polyoxypeptin or deoxypolyoxypeptin was added to the liquid culture medium present in each well at a concentration of 1, 3, 10, 30 or 100 ng/ml of said compound. Then the incubation of the cells was effected for 2 days. Then, the number of cells was counted by MTT assay method.
compound,measurement,setting,value
COc1cccc2c1C(=O)c1c(O)c3c(c(O)c1C2=O)C[C@@](O)(C(=O)CO)C[C@@H]3O[C@H]1C[C@H](N)[C@H](O)[C@H](C)O1 [adriamycin],time within which apoptosis is induced on BxPC-3 cell,BxPC-3 cell,≤ 24 h
same,apoptosis induction on many spontaneously generated human solid cancer cells,[1],does not induce apoptosis
same,apoptosis induction on AsPC-1 cell,AsPC-1 cell,does not induce apoptosis
same,apoptosis induction on leukemia cells and experimental cancer cells,[2],can have an activity of inducing the apoptosis
same,apoptosis induction on some of incubated cancer cells,incubated cancer cells,have the activities of inducing the apoptosis
CCC(C)CC1CCC(O)(C(C)(O)C(=O)NC2C(=O)N3NCCCC3C(=O)N(O)C(C)C(=O)N3NCCCC3C(=O)N3CCC(C)(O)C3C(=O)N(O)C(C(C)C)C(=O)OC2C(C)C)OC1CC (centres unmarked) [deoxypolyoxypeptin],antibacterial activity against gram-negative bacteria,Escherichia coli,did not exhibit any antibacterial activity
same,IC50,"AsPC-1 cells [3]; ASPC1, 24 hours incubation, RPMI 1640 with 10% FBS",0.08 µg/mL
same,time after drug treatment in which apoptosis was induced on AsPC-1 cells,AsPC-1 cells [3],approximately 24 hours
same,LD50,mice,125 μg/mouse
same,IC50,"[4]; PSN1, PSN-1, 24 hours, medium A",0.01 µg/mL
same,IC50,"[5]; K-ras-NIH3T3, 24 hours, medium A",0.1 µg/mL
same,IC50,"[6]; ASPC1, AsPC-1, 24 hours, medium A",0.08 µg/mL
same,IC50,"[7]; HL-60, 24 hours, medium A",0.04 µg/mL
same,IC50,"[8]; RSV-NIH3T3 (src-transformed NIH3T3), 24 hours, medium A",0.06 µg/mL
same,IC50,"[9]; BxPC-3, 24 hours, medium A",0.03 µg/mL
same,IC50,"Human epithelioma A431; A-431, A431, 24 hours, medium C",0.03 µg/mL
same,IC50,"[10]; 24 hours, medium B",0.05 µg/mL
same,IC50,"[11]; HHUA, 24 hours, medium D",0.05 µg/mL
same,IC50,"[12]; NIH3T3, 24 hours, medium A",0.05 µg/mL
same,IC50,"Rat fibroblast cell NRK; NRK, 24 hours, medium C",0.18 µg/mL
same,IC50,"[13]; Panc-1, 24 hours, medium A",0.05 µg/mL
same,IC50,"[14]; K562, 24 hours, medium A",0.02 µg/mL
same,IC50,"[15]; HT-1080, HT1080, 24 hours, medium D",0.02 µg/mL
same,IC50,"[16]; A4 (cerbB2-NIH3T3), 24 hours, medium A",0.06 µg/mL
same,IC50,"[17]; K-ras-NRK, 24 hours, medium C",0.05 µg/mL
same,apoptosis-inducing activity on other human solid cancer cells,[18],have also an activity of inducing apoptosis
same,Solubility in organic solvents,Solubility,Soluble
same,Solubility in water,Solubility,hardly soluble
same,IC50,"AsPC-1 cells [19]; 2 days incubation, MTT, RPMI 1640 with 10% FBS",0.015 µg/mL
N.N.[Cl][Pt][Cl] [cisplatin],apoptosis induction on many spontaneously generated human solid cancer cells,[1],does not induce apoptosis
same,apoptosis induction on leukemia cells and experimental cancer cells,[2],can have an activity of inducing the apoptosis
same,apoptosis induction on some of incubated cancer cells,incubated cancer cells,have the activities of inducing the apoptosis
CCC(C)CC1CCC(O)(C(C)(O)C(=O)NC2C(=O)N3NCCCC3C(=O)N(O)C(C)C(=O)N3NCC(O)CC3C(=O)N3CCC(C)(O)C3C(=O)N(O)C(C(C)C)C(=O)OC2C(C)C)OC1CC (centres unmarked) [polyoxypeptin],antibacterial activity against gram-negative bacteria,Escherichia coli,did not exhibit any antibacterial activity
same,IC50,"AsPC-1 cells [3]; ASPC1, 24 h",0.08 µg/mL
same,time after drug treatment in which apoptosis was induced on AsPC-1 cells,AsPC-1 cells [3],approximately 24 hours
same,LD50,mice,67.5 μg/mouse
same,IC50,"[4]; PSN1, 24 h",0.01 µg/mL
same,IC50,[5]; 24 h,0.1 µg/mL
same,IC50,"[6]; ASPC1, 24 h",0.08 µg/mL
same,IC50,"[7]; HL-60, 24 h",0.04 µg/mL
same,IC50,"[8]; NIH3T3, 24 h",0.06 µg/mL
same,IC50,"[9]; BXPC-3, 24 h",0.03 µg/mL
same,IC50,"Human epithelioma A431; A-431, 24 h",0.03 µg/mL
same,IC50,[10]; 24 h,0.05 µg/mL
same,IC50,[11]; 24 h,0.05 µg/mL
same,IC50,"[12]; NIH3T3, 24 h",0.05 µg/mL
same,IC50,Rat fibroblast cell NRK; 24 h,0.18 µg/mL
same,IC50,"[13]; PANC-1, 24 h",0.05 µg/mL
same,IC50,"[14]; K562, 24 h",0.02 µg/mL
same,IC50,"[15]; HT-1080, 24 h",0.02 µg/mL
same,IC50,[16]; 24 h,0.06 µg/mL
same,IC50,[17]; 24 h,0.05 µg/mL
same,apoptosis-inducing activity on other human solid cancer cells,[18],have also an activity of inducing apoptosis
same,Solubility in organic solvents,Solubility,Soluble
same,Solubility in water,Solubility,hardly soluble
same,IC50,AsPC-1 cells [19],0.015 µg/mL
